{"source": "patent US9274101B2", "about": "(BIOLOG, Inc., priority 2001, dated 2016)", "type_in_all_cases": "cell-based, human", "key": {"HL-60 cells [1]": {"test_system": "HL-60 cells", "test": "HL-60 responses to selected compounds at a range of concentrations", "protocol": "In this Example, methods for testing unattached cells for their ability to use various concentrations of selected carbon sources are described. The carbon sources used in this Example were identified by the methods disclosed in Example 27. Similarly, HL-60 cells were cultured as described in Example 27.\nAfter washing, HL-60 cells were resuspended in DME-R. An aliquot of the cell suspension was counted by trypan blue exclusion and the cell density was adjusted to 6.67×10^5/mL. Fifty μL of DME-R were added to each well of the appropriate number of half area, 96-well plates, followed by 23 μL of the appropriate dilution of each test energy source. Stocks of 133 mM of each test chemical were prepared in tissue culture grade water, sterile filtered, and dilutions were prepared in a master plate so that, upon dilution in a total volume of 150 μL, the final concentrations would be 0.033 to 20 mM. Negative control wells received 23 μL of tissue culture grade water. The cells were plated at a volume of 75 μL/well, giving a final cell density of 5×10^4/well. For each plate containing energy sources and cells, a second, control plate containing only energy sources was prepared. Plates were incubated at 5% CO2, 90-100% humidity, and 37° C. for 24 hours prior to addition of the MTS/MPMS colorometric reagent (7.5 μL/well). The color formed in each well after an additional 24 hour incubation period, was measured on a plate reader at 490 nm with a reference wavelength of 650 nm. OD values from the control plate were subtracted from the OD values obtained with cells prior to normalizing the data to % negative control (cells without added energy source)."}, "[2]": {"test_system": "Undifferentiated HL-60 cells", "test": "Energy use by undifferentiated HL-60 cells"}, "HL-60 cells [3]": {"test_system": "HL-60 cells", "test": "Effect of 1 mM chloramphenicol on HL-60 energy utilization", "conditions": "negative control without chloramphenicol", "protocol": "In this Example, methods for testing antimicrobial-induced modulation in growth of a cell are described. The antimicrobial selected for this Example is chloramphenicol. However, this application is not intended to be limited to the use of chloramphenicol, translation inhibitors or even antibiotics. HL-60 cells were cultured as described in Example 27.\nAfter washing, HL-60 cells were resuspended in DME-R. An aliquot of the cell suspension was counted by trypan blue exclusion and the cell density was adjusted to 6.67×10^5[…]. Fifty μL of DME-R containing 3 mM chloramphenicol were added to each well of the appropriate number of half area, 96-well plates, followed by 25 μL of the appropriate dilution of each test energy source. Stocks of 133 mM of each test chemical were prepared in tissue culture grade water, sterile filtered, and dilutions were prepared in a master plate so that, upon dilution in a total volume of 150 μL, the final concentrations would be 0.033 to 20 mM. Negative control wells received 25 μL of tissue culture grade water. The cells were plated at a volume of 75 μL/well, giving a final cell density of 5×10^4/well. For each plate containing energy sources and cells, a second, control plate containing only energy sources was prepared. Plates were incubated at 5% CO2, 90-100% humidity, and 37° C. for 24 hours prior to addition of the MTS/MPMS colorimetric reagent (7.5 μL/well). The color formed in each well 24 hours after addition of the colorimetric reagent, was measured with a plate reader at 490 nm with a reference wavelength of 650 nm. OD values from the control plate were subtracted from the OD values obtained with cells prior to normalizing the data to % negative control.\nData shown in Table 25 are expressed as percent negative control without chloramphenicol. […] Chloramphenicol clearly has a different effect on the cells than citrate shown in Example 33."}, "HL-60 cells [4]": {"test_system": "HL-60 cells", "test": "Effect of 10 mM citric acid on HL-60 energy utilization", "conditions": "negative control without energy sources and without citric acid"}}, "data": [{"smiles": "N[C@@H](Cc1c[nH]cn1)C(=O)O", "note": "[L-histidine]", "values": [{"measurement": "activity at 30 µM", "setting": "HL-60 cells [1]; Homo sapiens, HL-60, Conc. 0.03 mM, read-out: HL-60 Cell Responses to Selected Compounds from PM1 and PM2", "value": 123, "unit": "%"}, {"measurement": "activity at 100 µM", "setting": "HL-60 cells [1]; Homo sapiens, HL-60, Conc. 0.10 mM, read-out: HL-60 Cell Responses to Selected Compounds from PM1 and PM2", "value": 121, "unit": "%"}, {"measurement": "activity at 330 µM", "setting": "HL-60 cells [1]; Homo sapiens, HL-60, Conc. 0.33 mM, read-out: HL-60 Cell Responses to Selected Compounds from PM1 and PM2", "value": 128, "unit": "%"}, {"measurement": "activity at 1000 µM", "setting": "HL-60 cells [1]; Homo sapiens, HL-60, Conc. 1.00 mM, read-out: HL-60 Cell Responses to Selected Compounds from PM1 and PM2", "value": 135, "unit": "%"}, {"measurement": "activity at 3300 µM", "setting": "HL-60 cells [1]; Homo sapiens, HL-60, Conc. 3.3 mM, read-out: HL-60 Cell Responses to Selected Compounds from PM1 and PM2", "value": 146, "unit": "%"}, {"measurement": "activity at 10000 µM", "setting": "HL-60 cells [1]; Homo sapiens, HL-60, Conc. 10 mM, read-out: HL-60 Cell Responses to Selected Compounds from PM1 and PM2", "value": 120, "unit": "%"}, {"measurement": "activity at 15000 µM", "setting": "HL-60 cells [1]; Homo sapiens, HL-60, Conc. 15 mM, read-out: HL-60 Cell Responses to Selected Compounds from PM1 and PM2", "value": 123, "unit": "%"}, {"measurement": "activity at 20000 µM", "setting": "HL-60 cells [1]; Homo sapiens, HL-60, Conc. 20 mM, read-out: HL-60 Cell Responses to Selected Compounds from PM1 and PM2", "value": 95, "unit": "%"}, {"measurement": "activity at 30 µM", "setting": "[2]; Homo sapiens, HL-60, 24 h, Conc. 0.03 mM, read-out: Energy Use by Undifferentiated HL-60 Cells", "value": 119, "unit": "%"}, {"measurement": "activity at 100 µM", "setting": "[2]; Homo sapiens, HL-60, 24 h, Conc. 0.10 mM, read-out: Energy Use by Undifferentiated HL-60 Cells", "value": 117, "unit": "%"}, {"measurement": "activity at 330 µM", "setting": "[2]; Homo sapiens, HL-60, 24 h, Conc. 0.33 mM, read-out: Energy Use by Undifferentiated HL-60 Cells", "value": 105, "unit": "%"}, {"measurement": "activity at 1000 µM", "setting": "[2]; Homo sapiens, HL-60, 24 h, Conc. 1.00 mM, read-out: Energy Use by Undifferentiated HL-60 Cells", "value": 118, "unit": "%"}, {"measurement": "activity at 3300 µM", "setting": "[2]; Homo sapiens, HL-60, 24 h, Conc. 3.3 mM, read-out: Energy Use by Undifferentiated HL-60 Cells", "value": 162, "unit": "%"}, {"measurement": "activity at 10000 µM", "setting": "[2]; Homo sapiens, HL-60, 24 h, Conc. 10 mM, read-out: Energy Use by Undifferentiated HL-60 Cells", "value": 144, "unit": "%"}, {"measurement": "activity at 15000 µM", "setting": "[2]; Homo sapiens, HL-60, 24 h, Conc. 15 mM, read-out: Energy Use by Undifferentiated HL-60 Cells", "value": 149, "unit": "%"}, {"measurement": "activity at 20000 µM", "setting": "[2]; Homo sapiens, HL-60, 24 h, Conc. 20 mM, read-out: Energy Use by Undifferentiated HL-60 Cells", "value": 104, "unit": "%"}, {"measurement": "Effect of 1 mM chloramphenicol on HL-60 Energy Utilization", "setting": "HL-60 cells [3]; energy source 0.03 mM with 1 mM chloramphenicol", "value": "6.9 % of negative control"}, {"measurement": "Effect of 1 mM chloramphenicol on HL-60 Energy Utilization", "setting": "HL-60 cells [3]; energy source 0.10 mM with 1 mM chloramphenicol", "value": "4.3 % of negative control"}, {"measurement": "Effect of 1 mM chloramphenicol on HL-60 Energy Utilization", "setting": "HL-60 cells [3]; energy source 0.33 mM with 1 mM chloramphenicol", "value": "7.3 % of negative control"}, {"measurement": "Effect of 1 mM chloramphenicol on HL-60 Energy Utilization", "setting": "HL-60 cells [3]; energy source 1.00 mM with 1 mM chloramphenicol", "value": "7.2 % of negative control"}, {"measurement": "Effect of 1 mM chloramphenicol on HL-60 Energy Utilization", "setting": "HL-60 cells [3]; energy source 3.3 mM with 1 mM chloramphenicol", "value": "13.9 % of negative control"}, {"measurement": "Effect of 1 mM chloramphenicol on HL-60 Energy Utilization", "setting": "HL-60 cells [3]; energy source 10 mM with 1 mM chloramphenicol", "value": "19.1 % of negative control"}, {"measurement": "Effect of 1 mM chloramphenicol on HL-60 Energy Utilization", "setting": "HL-60 cells [3]; energy source 15 mM with 1 mM chloramphenicol", "value": "13.1 % of negative control"}, {"measurement": "Effect of 1 mM chloramphenicol on HL-60 Energy Utilization", "setting": "HL-60 cells [3]; energy source 20 mM with 1 mM chloramphenicol", "value": "8.4 % of negative control"}]}, {"smiles": "O=C1O[C@@H]([C@H](O)CO)[C@H](O)[C@H]1O", "note": "[D-gal acid g-lactone]", "values": [{"measurement": "HL-60 Cell Responses to Selected Compounds from PM1 and PM2", "setting": "HL-60 cells [1]; Conc. 0.03 mM", "value": "128.3 % of negative control"}, {"measurement": "HL-60 Cell Responses to Selected Compounds from PM1 and PM2", "setting": "HL-60 cells [1]; Conc. 0.10 mM", "value": "128.7 % of negative control"}, {"measurement": "HL-60 Cell Responses to Selected Compounds from PM1 and PM2", "setting": "HL-60 cells [1]; Conc. 0.33 mM", "value": "129.3 % of negative control"}, {"measurement": "HL-60 Cell Responses to Selected Compounds from PM1 and PM2", "setting": "HL-60 cells [1]; Conc. 1.00 mM", "value": "141.4 % of negative control"}, {"measurement": "HL-60 Cell Responses to Selected Compounds from PM1 and PM2", "setting": "HL-60 cells [1]; Conc. 3.3 mM", "value": "142.2 % of negative control"}, {"measurement": "HL-60 Cell Responses to Selected Compounds from PM1 and PM2", "setting": "HL-60 cells [1]; Conc. 10 mM", "value": "127.1 % of negative control"}, {"measurement": "HL-60 Cell Responses to Selected Compounds from PM1 and PM2", "setting": "HL-60 cells [1]; Conc. 15 mM", "value": "122.2 % of negative control"}, {"measurement": "HL-60 Cell Responses to Selected Compounds from PM1 and PM2", "setting": "HL-60 cells [1]; Conc. 20 mM", "value": "93.9 % of negative control"}, {"measurement": "Energy Use by Undifferentiated HL-60 Cells", "setting": "[2]; Conc. 0.03 mM", "value": "122.7 % of negative control"}, {"measurement": "Energy Use by Undifferentiated HL-60 Cells", "setting": "[2]; Conc. 0.10 mM", "value": "127.4 % of negative control"}, {"measurement": "Energy Use by Undifferentiated HL-60 Cells", "setting": "[2]; Conc. 0.33 mM", "value": "125.3 % of negative control"}, {"measurement": "Energy Use by Undifferentiated HL-60 Cells", "setting": "[2]; Conc. 1.00 mM", "value": "133.2 % of negative control"}, {"measurement": "Energy Use by Undifferentiated HL-60 Cells", "setting": "[2]; Conc. 3.3 mM", "value": "152.6 % of negative control"}, {"measurement": "Energy Use by Undifferentiated HL-60 Cells", "setting": "[2]; Conc. 10 mM", "value": "136.7 % of negative control"}, {"measurement": "Energy Use by Undifferentiated HL-60 Cells", "setting": "[2]; Conc. 15 mM", "value": "147.5 % of negative control"}, {"measurement": "Energy Use by Undifferentiated HL-60 Cells", "setting": "[2]; Conc. 20 mM", "value": "125.0 % of negative control"}, {"measurement": "Effect of 10 mM Citric Acid on HL-60 Energy Utilization", "setting": "HL-60 cells [4]; energy source 0.03 mM with 10 mM citric acid", "value": "9.5 % of negative control"}, {"measurement": "Effect of 10 mM Citric Acid on HL-60 Energy Utilization", "setting": "HL-60 cells [4]; energy source 0.10 mM with 10 mM citric acid", "value": "20.9 % of negative control"}, {"measurement": "Effect of 10 mM Citric Acid on HL-60 Energy Utilization", "setting": "HL-60 cells [4]; energy source 0.33 mM with 10 mM citric acid", "value": "35.7 % of negative control"}, {"measurement": "Effect of 10 mM Citric Acid on HL-60 Energy Utilization", "setting": "HL-60 cells [4]; energy source 1.00 mM with 10 mM citric acid", "value": "63.3 % of negative control"}, {"measurement": "Effect of 10 mM Citric Acid on HL-60 Energy Utilization", "setting": "HL-60 cells [4]; energy source 3.3 mM with 10 mM citric acid", "value": "162.8 % of negative control"}, {"measurement": "Effect of 10 mM Citric Acid on HL-60 Energy Utilization", "setting": "HL-60 cells [4]; energy source 10 mM with 10 mM citric acid", "value": "151.5 % of negative control"}, {"measurement": "Effect of 10 mM Citric Acid on HL-60 Energy Utilization", "setting": "HL-60 cells [4]; energy source 15 mM with 10 mM citric acid", "value": "126.5 % of negative control"}, {"measurement": "Effect of 10 mM Citric Acid on HL-60 Energy Utilization", "setting": "HL-60 cells [4]; energy source 20 mM with 10 mM citric acid", "value": "115.7 % of negative control"}]}]}
